Legend:
[1] = test system: MM.1S; test: CCK-8 proliferation, MM.1S; assay type: cell-based; conditions: Homo sapiens, MM1.S; Table B6, compounds designed based on the ALK inhibitors; MM.1S cells; read-out: Inhibitory activity (IC50, nM) on tumor cell proliferation, MM.1S
Method in brief: (§1)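 Cells seeded, then after 24 h treated with 10 concentrations (top 10 µM, 5-fold serial dilution) for a line-specific time at 37°C, 5% CO2. Viability read by CCK-8; IC50 fitted from growth-inhibition curves.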

[2] = test system: MCF7; test: CCK-8 proliferation, MCF7 (MCF-7); assay type: cell-based; conditions: Homo sapiens, MCF7; Table B6, compounds designed based on the ALK inhibitors; MCF-7 cells; read-out: Inhibitory activity (IC50, nM) on tumor cell proliferation, MCF-7
Method in brief: as §1

[3] = test system: H1975; test: CCK-8 proliferation, NCI-H1975 (H1975); assay type: cell-based, Human; conditions: Homo sapiens, NCI-H1975; Table B6, compounds designed based on the ALK inhibitors; H1975 cells; read-out: Inhibitory activity (IC50, nM) on tumor cell proliferation, H1975
Method in brief: as §1

[4] = test system: H2228; test: CCK-8 proliferation, NCI-H2228 (H2228); assay type: cell-based; conditions: Homo sapiens, NCI-H2228; Table B6, compounds designed based on the ALK inhibitors; H2228 cells; read-out: Inhibitory activity (IC50, nM) on tumor cell proliferation, H2228
Method in brief: as §1

[5] = test system: SR; test: CCK-8 proliferation, SR; assay type: cell-based, Human; conditions: Homo sapiens; Table B6, compounds designed based on the ALK inhibitors; SR cells; read-out: Inhibitory activity (IC50, nM) on tumor cell proliferation, SR
Method in brief: as §1

[6] = test system: MDA-MB-231; test: CCK-8 proliferation, MDA-MB-231; assay type: cell-based; conditions: Homo sapiens; Table B6, compounds designed based on the ALK inhibitors; MDA-MB-231 cells; read-out: Inhibitory activity (IC50, nM) on tumor cell proliferation, MDA-MB-231
Method: The tumor cells used herein were cultured in a cell culture medium listed in table A1 at 37°C in an incubator with 5% CO2. Prior to experimentation, all cell lines used were correctly identified by STR profiling, and tested negative for mycoplasma contamination using a mycoplasma detection kit through routine screenings. Table A1. Tumor cells and cell culture medium used in the present disclosure
IC50 values of the compounds of the present disclosure (including the compounds in Table 1, and compounds of examples) were measured using the Meilun Cell Counting Kit-8 kit from Dalian Meilun Biotech Co., Ltd. Assay details are as follows: tumor cells were seeded in a 96-well plate at a density listed in Table A2. After 24h, 100 µL of the inoculated cells were treated with 0.5µL of the compounds of the present disclosure (including the compounds in Tables 1 and 2, and compounds of examples) at 10 different successively decreasing concentrations (starting at the highest concentration of 10µM; 5-fold serial dilutions). After the cells were treated with the compounds of the present disclosure for a period of time, the cell viability detection reagent was added to the culture medium for cell viability assessment according to the instructions provided with the CCK-8 kit. […] The growth inhibition of the compounds of the present disclosure on cells was plotted by Prism Graphpad software, and the IC50 values of the compounds of the present disclosure were calculated therefrom. […] Seeding protocol and treatment time for tumor cells

[7] = target: T1, ALK (Homo sapiens, UniProt Q96SW2+Q9HC35+Q9UM73); test: Western blot degradation of ALK (H2228 Cell); assay type: cell-based; conditions: Table D5
T1 construct: evaluate the effects of the compounds of the present disclosure on the expression of target proteins in cells; endogenous in cells; host or cells: H2228
Method in brief: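 Quantification by ImageJ densitometry of Western blot bands: DC50 is the fitted concentration halving band intensity relative to DMSO. Percent remaining uses internal-control normalization, and degradation rate is its complement.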

T1 sequence (Q9HC35+Q9UM73 fused): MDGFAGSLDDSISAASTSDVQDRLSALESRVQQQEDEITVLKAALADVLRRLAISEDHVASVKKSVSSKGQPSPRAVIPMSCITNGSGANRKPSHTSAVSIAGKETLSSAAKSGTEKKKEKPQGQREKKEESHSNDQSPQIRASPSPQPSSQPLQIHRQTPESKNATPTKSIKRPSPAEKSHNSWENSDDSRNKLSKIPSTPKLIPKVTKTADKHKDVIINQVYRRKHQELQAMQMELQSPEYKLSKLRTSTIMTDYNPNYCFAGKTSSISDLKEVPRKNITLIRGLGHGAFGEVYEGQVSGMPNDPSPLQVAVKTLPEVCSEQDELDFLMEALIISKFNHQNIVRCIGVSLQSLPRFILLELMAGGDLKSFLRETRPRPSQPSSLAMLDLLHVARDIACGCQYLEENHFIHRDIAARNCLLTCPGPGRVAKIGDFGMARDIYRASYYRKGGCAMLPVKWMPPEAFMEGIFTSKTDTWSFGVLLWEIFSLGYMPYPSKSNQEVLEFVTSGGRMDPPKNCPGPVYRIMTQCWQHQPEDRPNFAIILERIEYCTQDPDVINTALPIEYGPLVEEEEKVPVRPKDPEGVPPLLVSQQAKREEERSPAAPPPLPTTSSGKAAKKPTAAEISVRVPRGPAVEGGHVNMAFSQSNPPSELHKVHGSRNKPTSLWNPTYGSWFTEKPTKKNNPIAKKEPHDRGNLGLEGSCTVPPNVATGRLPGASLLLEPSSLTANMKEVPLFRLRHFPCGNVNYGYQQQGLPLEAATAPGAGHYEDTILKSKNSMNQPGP
T1 sequence (Q96SW2 whole entry): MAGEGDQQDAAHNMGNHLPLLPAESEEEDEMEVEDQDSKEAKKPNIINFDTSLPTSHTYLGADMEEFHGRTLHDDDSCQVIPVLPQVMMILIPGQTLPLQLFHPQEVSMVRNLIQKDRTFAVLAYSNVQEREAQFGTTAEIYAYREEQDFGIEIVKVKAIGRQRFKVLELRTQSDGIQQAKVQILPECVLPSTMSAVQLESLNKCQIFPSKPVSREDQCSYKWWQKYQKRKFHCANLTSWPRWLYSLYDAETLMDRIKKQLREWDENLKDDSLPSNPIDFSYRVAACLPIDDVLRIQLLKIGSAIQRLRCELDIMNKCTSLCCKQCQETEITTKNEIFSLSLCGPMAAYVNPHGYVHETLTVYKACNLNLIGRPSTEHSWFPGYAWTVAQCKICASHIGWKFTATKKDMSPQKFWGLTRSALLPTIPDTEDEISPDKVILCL
T1 sequence (Q16531 whole entry partner): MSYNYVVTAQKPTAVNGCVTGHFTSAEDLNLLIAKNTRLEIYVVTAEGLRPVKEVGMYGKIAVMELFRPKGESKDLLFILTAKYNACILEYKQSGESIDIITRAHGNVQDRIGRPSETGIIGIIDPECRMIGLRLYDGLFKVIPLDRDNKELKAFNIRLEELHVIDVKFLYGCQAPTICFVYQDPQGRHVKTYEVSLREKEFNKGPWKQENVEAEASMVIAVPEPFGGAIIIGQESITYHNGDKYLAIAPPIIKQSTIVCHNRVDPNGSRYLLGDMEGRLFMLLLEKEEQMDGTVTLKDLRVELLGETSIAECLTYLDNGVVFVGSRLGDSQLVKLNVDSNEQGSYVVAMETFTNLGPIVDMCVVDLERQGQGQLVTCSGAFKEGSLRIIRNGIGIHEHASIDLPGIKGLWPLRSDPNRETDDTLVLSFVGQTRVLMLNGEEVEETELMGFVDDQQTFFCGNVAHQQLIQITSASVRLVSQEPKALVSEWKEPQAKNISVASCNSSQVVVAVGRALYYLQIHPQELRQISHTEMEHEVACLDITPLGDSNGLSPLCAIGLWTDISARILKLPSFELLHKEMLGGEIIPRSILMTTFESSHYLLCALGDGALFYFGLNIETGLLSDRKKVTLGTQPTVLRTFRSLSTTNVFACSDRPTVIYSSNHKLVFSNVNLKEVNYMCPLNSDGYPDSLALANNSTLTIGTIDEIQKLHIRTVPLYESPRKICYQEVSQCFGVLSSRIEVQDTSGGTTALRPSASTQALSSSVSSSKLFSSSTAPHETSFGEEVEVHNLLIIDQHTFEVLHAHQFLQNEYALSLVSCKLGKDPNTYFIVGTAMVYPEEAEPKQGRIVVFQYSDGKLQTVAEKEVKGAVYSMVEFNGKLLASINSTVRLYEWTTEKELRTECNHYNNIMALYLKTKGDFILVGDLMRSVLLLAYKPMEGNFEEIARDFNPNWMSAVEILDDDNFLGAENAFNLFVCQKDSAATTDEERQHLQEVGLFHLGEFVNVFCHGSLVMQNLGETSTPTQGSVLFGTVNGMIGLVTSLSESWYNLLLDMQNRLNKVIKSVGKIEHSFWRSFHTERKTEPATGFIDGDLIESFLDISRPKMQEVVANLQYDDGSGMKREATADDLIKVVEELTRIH

| SMILES | IC50 [1] [nM] | IC50 [2] [nM] | IC50 [3] [nM] | IC50 [4] [nM] | IC50 [5] [nM] | IC50 [6] [nM] | Degradation of substrate protein ALK (substrate protein remaining %) [7] |
| --- | --- | --- | --- | --- | --- | --- | --- |
| COc1cc(N2CCC(N3CCN(C)CC3)CC2)ccc1Nc1ncc(Cl)c(Nc2ccccc2P(C)(C)=O)n1 [brigatinib, reference compound] | 1000 to 5000 | 1000 to 5000 | > 10000 | > 10000 | 100 to 500 | 1000 to 5000 | – |
| COc1cc(N2CCC(N3CCN(Cc4ccnc(C5CCC(=O)NC5=O)c4)CC3)CC2)ccc1Nc1ncc(Cl)c(Nc2ccccc2P(C)(C)=O)n1 (stereo not shown) [GT-07612, 3-(4-((4-(1-(4-((5-chloro-4-((2-(dimethylphosphoryl)phenyl)amino)pyrimidin-2-yl)amino)-3-methoxyphenyl)piperidin-4-yl)piperazin-1-yl)methyl)pyridin-2-yl)piperidine-2,6-dione] | – | – | 100 to 500 | 50 to 100 | 1 to 10 | 500 to 1000 | A (A is defined as 0% ≤ substrate protein remaining % ≤ 80%) |
| CCc1cc2c(cc1N1CCC(N3CCN(Cc4cncc(N5CCC(=O)NC5=O)c4)CC3)CC1)C(C)(C)c1[nH]c3cc(C#N)ccc3c1C2=O [GT-07702, 8-(4-(4-((5-(2,4-dioxotetrahydropyrimidin-1(2H)-yl)pyridin-3-yl)methyl)piperazin-1-yl)piperidin-1-yl)-9-ethyl-6,6-dimethyl-11-oxo-6,11-dihydro-5H-benzo[b]carbazole-3-carbonitrile] | 500 to 1000 | 500 to 1000 | 500 to 1000 | 100 to 500 | 1 to 10 | 500 to 1000 | – |
| COc1cc(N2CCC(N3CCN(Cc4ccc(C5CCC(=O)NC5=O)cc4)CC3)CC2)ccc1Nc1ncc(Cl)c(Nc2ccccc2P(C)(C)=O)n1 (stereo not shown) [GT-07602, 3-(4-((4-(1-(4-((5-chloro-4-((2-(dimethylphosphoryl)phenyl)amino)pyrimidin-2-yl)amino)-3-methoxyphenyl)piperidin-4-yl)piperazin-1-yl)methyl)phenyl)piperidine-2,6-dione] | 100 to 500 | 100 to 500 | 100 to 500 | 10 to 50 | 1 to 10 | 100 to 500 | – |
| COc1cc(N2CCC(N3CCN(Cc4cccc(N5CCC(=O)NC5=O)c4)CC3)CC2)ccc1Nc1ncc(Cl)c(Nc2ccccc2P(C)(C)=O)n1 [GT-07604, 1-(3-((4-(1-(4-((5-chloro-4-((2-(dimethylphosphoryl)phenyl)amino)pyrimidin-2-yl)amino)-3-methoxyphenyl)piperidin-4-yl)piperazin-1-yl)methyl)phenyl)dihydropyr imidine-2,4(1H,3H)-dione] | 500 to 1000 | 100 to 500 | 100 to 500 | 10 to 50 | 1 to 10 | 500 to 1000 | – |
| CCc1cc2c(cc1N1CCC(N3CCOCC3)CC1)C(C)(C)c1[nH]c3cc(C#N)ccc3c1C2=O [alectinib, reference compound] | 1000 to 5000 | 5000 to 10000 | 1000 to 5000 | 5000 to 10000 | 10 to 50 | 1000 to 5000 | – |
| COc1cc(N2CCC(N3CCN(Cc4ccc(N5CCC(=O)NC5=O)cn4)CC3)CC2)ccc1Nc1ncc(Cl)c(Nc2ccccc2P(C)(C)=O)n1 [GT-07606, 1-(6-((4-(1-(4-((5-chloro-4-((2-(dimethylphosphoryl)phenyl)amino)pyrimidin-2-yl)amino)-3-methoxyphenyl)piperidin-4-yl)piperazin-1-yl)methyl)pyridin-3-yl)dihydropyrimidine-2,4(1H,3H)-dione] | 500 to 1000 | 100 to 500 | 100 to 500 | 50 to 100 | 1 to 10 | 100 to 500 | – |
| CCc1cc2c(cc1N1CCC(N3CCN(Cc4cc(C5CCC(=O)NC5=O)cnc4F)CC3)CC1)C(C)(C)c1[nH]c3cc(C#N)ccc3c1C2=O (stereo not shown) [GT-07703, 8-(4-(4-((5-(2,6-dioxopiperidin-3-yl)-2-fluoropyridin-3-yl)methyl)piperazin-1-yl)piperidin-1-yl)-9-ethyl-6,6-dimethyl-11-oxo-6,11-dihydro-5H-benzo[b]carbazole-3-carbonitrile] | – | 500 to 1000 | – | 50 to 100 | 1 to 10 | 500 to 1000 | – |
| CCc1cc2c(cc1N1CCC(N3CCN(Cc4cccc(N5CCC(=O)NC5=O)c4)CC3)CC1)C(C)(C)c1[nH]c3cc(C#N)ccc3c1C2=O [GT-07310, 8-(4-(4-(3-(2,4-dioxotetrahydropyrimidin-1(2H)-yl)benzyl)piperazin-1-yl)piperidin-1-yl)-9-ethyl-6,6-dimethyl-11-oxo-6,11-dihydro-5H-benzo[b]carbazole-3-carbonitrile] | – | 500 to 1000 | – | 100 to 500 | 1 to 10 | 500 to 1000 | A (A is defined as 0% ≤ substrate protein remaining % ≤ 80%) |
| COc1cc(N2CCC(N(C)Cc3cncc(N4CCC(=O)NC4=O)c3)CC2)ccc1Nc1ncc(Cl)c(Nc2ccccc2P(C)(C)=O)n1 [GT-07695, 1-(5-(((1-(4-((5-chloro-4-((2-(dimethylphosphoryl)phenyl)amino)pyrimidin-2-yl)amino)-3-methoxyphenyl)piperidin-4-yl)(methyl)amino)methyl)pyridin-3-yl)dihydropyrimidine-2,4(1H,3H)-dione] | 100 to 500 | 100 to 500 | 500 to 1000 | 100 to 500 | 10 to 50 | 500 to 1000 | – |
| COc1cc(N2CCC(N(C)Cc3cccc(N4CCC(=O)NC4=O)c3)CC2)ccc1Nc1ncc(Cl)c(Nc2ccccc2P(C)(C)=O)n1 [GT-07616, 1-(3-(((1-(4-((5-chloro-4-((2-(dimethylphosphoryl)phenyl)amino)pyrimidin-2-yl)amino)-3-methoxyphenyl)piperidin-4-yl)(methyl)amino)methyl)phenyl)dihydropyrimidine-2,4(1H,3H)-dione] | 500 to 1000 | 100 to 500 | 100 to 500 | 10 to 50 | 1 to 10 | 500 to 1000 | – |
| COc1cc(N2CCN(Cc3cncc(C4CCC(=O)NC4=O)c3)CC2)ccc1Nc1ncc(Cl)c(Nc2ccccc2P(C)(C)=O)n1 (stereo not shown) [GT-07714, 3-(5-((4-(4-((5-chloro-4-((2-(dimethylphosphoryl)phenyl)amino)pyrimidin-2-yl)amino)-3-methoxyphenyl)piperazin-1-yl)methyl)pyridin-3-yl)piperidine-2,6-dione] | – | 50 to 100 | – | 100 to 500 | 10 to 50 | 100 to 500 | A (A is defined as 0% ≤ substrate protein remaining % ≤ 80%) |
| COc1cc(N2CCC(N3CCN(Cc4ccc(N5CCC(=O)NC5=O)nc4)CC3)CC2)ccc1Nc1ncc(Cl)c(Nc2ccccc2P(C)(C)=O)n1 [GT-07607, 1-(5-((4-(1-(4-((5-chloro-4-((2-(dimethylphosphoryl)phenyl)amino)pyrimidin-2-yl)amino)-3-methoxyphenyl)piperidin-4-yl)piperazin-1-yl)methyl)pyridin-2-yl)dihydropyrimidine-2,4(1H,3H)-dione] | – | 100 to 500 | 100 to 500 | 10 to 50 | 1 to 10 | 100 to 500 | – |
| CCc1cc2c(cc1N1CCC(N3CCN(Cc4ccc(N5CCC(=O)NC5=O)cc4F)CC3)CC1)C(C)(C)c1[nH]c3cc(C#N)ccc3c1C2=O [GT-07309, 8-(4-(4-(4-(2,4-dioxotetrahydropyrimidin-1(2H)-yl)-2-fluorobenzyl)piperazin-1-yl)piperidin-1-yl)-9-ethyl-6,6-dimethyl-11-oxo-6,11-dihydro-5H-benzo[b]carbazole-3-carbonitrile] | – | – | – | 100 to 500 | 10 to 50 | 500 to 1000 | A (A is defined as 0% ≤ substrate protein remaining % ≤ 80%) |
